The record followed here is patent EP0413299A1, “Antibiotic composition” (MERCIAN CORPORATION, priority 1989, dated 1991).

Like-named read-outs stand apart in the source and are kept apart here.

The nature of one data set: X-ray diffraction. The format is physicochemical. To be noted: before storage. As for the experimental part:
The X-ray diffractions of the above-obtained samples were measured by using a JDX-8030 X-ray diffraction apparatus (JEOL LTD.) through a Ni-filter with a CuKα x-ray (40KV, 20mA) at a scanning speed of 1.2° /min. (Fig. 1).

Data set [1] is classed as physicochemical. To be noted: pH 4. As for the experimental part:
Solubility of the samples was determined by using a […] dissolution apparatus (Toyama Sangyo Co., LTD.) and 200 ml of buffer (adjusted at pH 4.0, prepared by mixing JP dissolution test solution 1 and JP dissolution test solution II) at 37 ± 0.5°C with stirring at 100 rpm paddle rotation. 250 mg (potency equivalent) of sample was added to the test solution, and the solubility of the sample was determined by high performance liquid chromatography under time course investigation. […] However, the solubility decreased immediately after about 5 minutes because of crystallization of the antibiotic. […] After storage for one month at 60°C , the solubility of the granules of Reference 3 was no more than 240μg/ml after five minutes, and became the same as that of the crystalline powders after 60 minutes.

For data set [2] the following is noted: acidic aqueous solution.

In general, solubility refers to how much of the substance goes into solution per volume. Low values mean a poorly soluble substance, high ones a readily soluble substance. 4˝-O-(Para-methoxyphenylacetyl)tylosin: in the data set “X-ray diffraction”, the X-ray diffraction peaks entry is on record as “High X-ray diffraction peaks were observed”. Moreover, the solubility result in data set [1] is “no more than about a few micrograms per ml”; in data set [2] (pH 2), 1200 µg/mL; in data set [2] (pH 4), 10 µg/mL; in data set [2] (pH 5), 2 µg/mL; in data set [2] (pH 6.8), 0.5 µg/mL.
